Measurements as given in the supplement of paper PMC10307832.

How the values were obtained:
Assay in all cases: relative viability (nuclei count vs DMSO), 5 days (fraction); higher = more cells survive
Irinotecan + Alpelisib = compound: CCc1c2c(nc3ccc(OC(=O)N4CCC(N5CCCCC5)CC4)cc13)-c1cc3c(c(=O)n1C2)COC(=O)[C@]3(O)CC [Irinotecan] + Cc1nc(NC(=O)N2CCC[C@H]2C(N)=O)sc1-c1ccnc(C(C)(C)C(F)(F)F)c1 [Alpelisib] (partner 2 µM)
How it was run: (§1)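 Nuclei were stained with Hoechst during a one-step fixation (final 0.05% Triton X-100, 1% formaldehyde, 1 ug/ml Hoechst) carried out 5 days after dosing, then counted on 4× images. The cells, lung cancer lines in 1536-well plates, had been dosed by pin tool the day after seeding with one drug alone or a fixed anchor-drug dose plus five library-drug doses (not always all listed) in √10 steps. Relative viability is the nuclei count in treated wells divided by that in vehicle wells, and each value is the median of duplicate plates.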

Irinotecan + Vorinostat = compound: CCc1c2c(nc3ccc(OC(=O)N4CCC(N5CCCCC5)CC4)cc13)-c1cc3c(c(=O)n1C2)COC(=O)[C@]3(O)CC [Irinotecan] + O=C(CCCCCCC(=O)Nc1ccccc1)NO [Vorinostat] (partner 1 µM)
How it was run: as §1

MK-8033 + Tozasertib = compound: Cn1cc(-c2cnc3ccc4ccc(CS(=O)(=O)NCc5ccccn5)cc4c(=O)c3c2)cn1 [MK-8033] + Cc1cc(Nc2cc(N3CCN(C)CC3)nc(Sc3ccc(NC(=O)C4CC4)cc3)n2)n[nH]1 [Tozasertib] (partner 0.1 µM)
How it was run: as §1

MK-8033 + Dasatinib = compound: Cn1cc(-c2cnc3ccc4ccc(CS(=O)(=O)NCc5ccccn5)cc4c(=O)c3c2)cn1 [MK-8033] + Cc1nc(Nc2ncc(C(=O)Nc3c(C)cccc3Cl)s2)cc(N2CCN(CCO)CC2)n1 [Dasatinib] (partner 0.075 µM)
How it was run: as §1

| Cell Line | relative viability (Irinotecan + Alpelisib; first compound 0.6325 µM) | relative viability (Irinotecan + Alpelisib; first compound 2 µM) | relative viability (Irinotecan + Alpelisib; first compound 6.325 µM) | relative viability (Irinotecan + Alpelisib; first compound 20 µM) | relative viability (Irinotecan + Vorinostat; first compound 2 µM) | relative viability (Irinotecan + Vorinostat; first compound 6.325 µM) | relative viability (Irinotecan + Vorinostat; first compound 20 µM) | relative viability (MK-8033 + Tozasertib; first compound 0.02 µM) | relative viability (MK-8033 + Tozasertib; first compound 0.06325 µM) | relative viability (MK-8033 + Tozasertib; first compound 0.2 µM) | relative viability (MK-8033 + Tozasertib; first compound 0.6325 µM) | relative viability (MK-8033 + Tozasertib; first compound 2 µM) | relative viability (MK-8033 + Dasatinib; first compound 0.02 µM) | relative viability (MK-8033 + Dasatinib; first compound 0.06325 µM) | relative viability (MK-8033 + Dasatinib; first compound 0.2 µM) | relative viability (MK-8033 + Dasatinib; first compound 0.6325 µM) | relative viability (MK-8033 + Dasatinib; first compound 2 µM) | relative viability (Irinotecan + Vorinostat; first compound 0.6325 µM) |
| --- | --- | --- | --- | --- | --- | --- | --- | --- | --- | --- | --- | --- | --- | --- | --- | --- | --- | --- |
| EKVX | 1.03 | 0.766 | 0.33 | 0.205 | 0.52 | 0.43 | 0.398 | 0.482 | 0.262 | 0.466 | 0.288 | 0.313 | 0.519 | 0.499 | 0.569 | 0.434 | 0.551 | – |
| NCI-H1355 | 0.711 | 0.4 | 0.222 | 0.237 | 0.578 | 0.36 | 0.26 | 0.572 | 0.524 | 0.513 | 0.526 | 0.398 | 0.647 | 0.655 | 0.645 | 0.698 | 0.763 | – |
| NCI-H661 | 0.798 | 0.538 | 0.277 | 0.269 | 0.49 | 0.344 | 0.252 | 0.37 | 0.328 | 0.359 | 0.35 | 0.345 | 0.886 | 0.818 | 0.783 | 0.766 | 0.858 | 0.688 |
| PC-3 [JPC-3] | 0.814 | 0.413 | 0.319 | 0.305 | 0.914 | 0.411 | 0.419 | 0.856 | 0.825 | 0.806 | 0.878 | 0.787 | 0.935 | 0.939 | 0.948 | 1.02 | 0.966 | 0.625 |
| NCI-H2085 | 0.888 | 0.75 | 0.458 | 0.482 | 0.756 | 0.583 | 0.564 | 0.812 | 0.708 | 0.73 | 0.841 | 0.593 | 0.209 | 0.246 | 0.247 | 0.265 | 0.225 | 0.753 |
| NCI-H1993 | 0.617 | 0.643 | 0.63 | 0.68 | 0.529 | 0.584 | 0.612 | 0.564 | 0.525 | 0.561 | 0.525 | 0.583 | 0.482 | 0.493 | 0.533 | 0.468 | 0.502 | – |
| NCI-H2228 | 0.791 | 0.598 | 0.431 | 0.408 | 0.592 | 0.435 | 0.433 | 0.199 | 0.214 | 0.168 | 0.253 | 0.214 | 0.586 | 0.517 | 0.471 | 0.446 | 0.482 | 0.567 |
| LK-2 | 1.17 | 1.4 | 0.487 | 0.259 | 0.264 | 0.256 | 0.242 | 0.174 | – | 0.179 | 0.182 | 0.198 | 0.269 | – | 0.251 | 0.376 | 0.304 | 0.363 |
| LC-2-ad | 0.634 | 0.283 | 0.155 | 0.17 | 0.373 | 0.283 | 0.181 | 0.441 | 0.385 | – | 0.512 | 0.409 | 0.547 | 0.437 | – | 0.67 | 0.61 | 0.312 |
| NCI-H596 | 0.639 | 0.548 | 0.483 | 0.557 | 0.639 | 0.728 | 0.737 | 0.802 | 0.898 | 0.859 | 0.944 | 0.853 | 0.55 | 0.535 | 0.586 | 0.626 | 0.455 | 0.587 |
| LCLC-97TM1 | 0.105 | 0.165 | 0.154 | 0.224 | 0.248 | 0.114 | 0.129 | 0.2 | 0.237 | 0.241 | 0.223 | 0.216 | 0.887 | 0.814 | 0.803 | 0.84 | 0.939 | 0.104 |
| SK-LU-1 | 0.459 | 0.541 | 0.351 | 0.273 | 0.431 | 0.45 | 0.313 | 0.328 | 0.35 | 0.304 | 0.327 | 0.312 | 0.153 | 0.224 | 0.182 | 0.185 | 0.191 | 0.435 |
| NCI-H1395 | – | 0.707 | 0.52 | 0.246 | 0.714 | 0.522 | 0.268 | 0.757 | 0.651 | 0.735 | 0.76 | 0.707 | 0.391 | 0.368 | 0.406 | 0.378 | 0.403 | – |
| COR-L23 | 0.324 | 0.238 | 0.158 | 0.119 | 0.184 | 0.199 | 0.0826 | 0.198 | 0.187 | 0.164 | 0.164 | 0.117 | 0.458 | 0.427 | 0.522 | 0.466 | 0.489 | 0.169 |
| NCI-H2126 | – | 0.384 | 0.289 | 0.312 | 0.616 | 0.335 | 0.292 | 0.773 | 0.749 | 0.772 | 0.841 | 0.79 | 0.601 | 0.556 | 0.597 | 0.601 | 0.573 | 0.4 |
| EPLC-272H | 0.44 | 0.203 | 0.183 | 0.267 | 0.389 | 0.357 | 0.254 | 0.27 | 0.214 | 0.279 | 0.32 | 0.152 | 0.375 | 0.273 | 0.297 | 0.319 | 0.336 | 0.428 |
| NCI-H1793 | – | 0.668 | 0.383 | 0.259 | 0.633 | 0.372 | 0.244 | 0.332 | 0.325 | 0.34 | 0.416 | 0.23 | 0.425 | 0.388 | 0.394 | 0.365 | 0.338 | – |
| NCI-H2009 | 0.838 | 0.591 | 0.26 | 0.135 | 0.379 | 0.236 | 0.135 | 0.776 | 0.703 | 0.694 | 0.707 | 0.737 | 0.299 | 0.329 | 0.308 | 0.232 | 0.279 | 0.589 |
